Experimental data from patent US4906662A, “Phenol derivatives, their preparation and the use thereof” (Otsuka Pharmaceutical Factory, Inc., priority 1986, dated 1990).
Counter-ions that a name gives are not always drawn.

Legend:
5-lipoxygenase = molecular target: T1, 5-lipoxygenase (Cavia porcellus, UniProt A0A286X958); test: 5-Lipoxygenase inhibitory activity (5-HETE formation in guinea pig peritoneal exudate cells); type: cell-based; settings: read-out: Percent inhibition of 5-lipoxygenase
T1 construct: endogenous in cells; host or cells: guinea pig peritoneal exudate cells (casein-elicited), intact cell suspension
T1 sequence (A0A286X958 1-674): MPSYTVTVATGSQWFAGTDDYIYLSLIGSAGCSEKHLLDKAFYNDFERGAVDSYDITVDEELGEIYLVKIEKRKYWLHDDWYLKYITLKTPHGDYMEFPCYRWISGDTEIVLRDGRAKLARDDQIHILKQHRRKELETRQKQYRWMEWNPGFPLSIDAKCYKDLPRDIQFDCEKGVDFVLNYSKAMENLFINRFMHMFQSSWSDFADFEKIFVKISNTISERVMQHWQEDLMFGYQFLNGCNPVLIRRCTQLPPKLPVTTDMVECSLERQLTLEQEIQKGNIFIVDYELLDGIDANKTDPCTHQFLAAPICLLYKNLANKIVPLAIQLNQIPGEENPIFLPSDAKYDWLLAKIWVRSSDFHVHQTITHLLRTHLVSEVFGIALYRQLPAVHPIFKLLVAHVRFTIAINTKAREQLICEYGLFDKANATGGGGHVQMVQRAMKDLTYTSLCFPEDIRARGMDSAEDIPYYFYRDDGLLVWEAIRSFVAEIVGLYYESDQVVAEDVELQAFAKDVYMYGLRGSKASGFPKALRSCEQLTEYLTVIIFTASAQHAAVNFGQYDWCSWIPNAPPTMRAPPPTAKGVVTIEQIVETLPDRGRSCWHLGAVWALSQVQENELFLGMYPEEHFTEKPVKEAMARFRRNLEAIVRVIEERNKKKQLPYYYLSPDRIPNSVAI
Method: (J. Biol. Chem., 256, 4156 (1981)) and to the method of Ochi et al. (J. Biol. Chem., 258, 5754 (1983). More specifically, 2% casein was intraperitoneally given to a guinea pig, which was bleeded to death 14 to 16 hours thereafter. The peritoneal cavity was washed to collect exudate cells, which were suspended in a phosphate buffer containing 1 mM CaCl2 and 5.5 mM glucose to a concentration of 2.5×10^7 cells/ml. The cell suspension was incubated at 30° C. for 2 minutes. The test compound was then added to the cell suspension, followed by incubation for 2 minutes. With addition of 10 μM of A23187 first and then 10 μM of ^14 C-arachidonic acid to the resulting suspension. Then, the suspension was incubated for 3 minutes. […] The arachidonic acid, 5(S)-hydroxy-6,8,11,14-eicosatetraenoic acid (5-HETE) and other portions were thereafter scraped off, and ^14 C was counted by a scintillator.

[1] = test system: carrageenin-induced paw edema; test: Anti-inflammatory activity: inhibition of carrageenin-induced paw edema in rats; type: in vivo, rat (S.D. strain, male); settings: po; 100 mg/kg p.o.; rat, 3 hours after carrageenin; read-out: Percent inhibition of edema
Method: (1) Anti-inflammatory activity:inhibition of carrageenin-induced paw edema in rats The compound was tested for the above activity according to the method of Winter et al. [Proc. Soc. […] One hour after the test compound was orally given to the animal, 0.1 ml of 1% carrageenin solution was subcutaneously injected into the right footpad. The paw volume was measured 3 hours thereafter, and the resulting increase in the volume was calculated based on the volume before the injection of carrageenin solution. The percent inhibition was determined in comparison with the increase in the control group.

| SMILES | inhibition at 1 µM (5-lipoxygenase) | inhibition at 10 µM (5-lipoxygenase) | inhibition in vivo at 100 mg/kg [1] |
| --- | --- | --- | --- |
| CC(C)(C)c1cc(Nc2ccc(F)cc2)cc(C(C)(C)C)c1O [Compound 1, 2,6-di-tert-butyl-4-(4-fluorophenylamino)phenol] | 24% | 36% | 57% |
| COc1ccc(Nc2cc(C(C)(C)C)c(O)c(C(C)(C)C)c2)cc1 [Compound 7] | – | 49% | 41% |
| CC(C)(C)c1cc(Nc2cccc(CO)c2)cc(C(C)(C)C)c1O [Compound 31, 2,6-di-tert-butyl-4-(3-hydroxymethylphenylamino)phenol hydrochloride] | 50% | 88% | 33% |
